Data on 4 compounds can be found in US8937041B2, “Macrocyclic hepatitis C serine protease inhibitors” (AbbVie, Inc., priority 2010, dated 2015).

Bounds are passed on as bounds.

One may read the IC50 as the midpoint of a concentration-inhibition curve. The EC50 is the concentration at which the effect is half-maximal.

Series [1] concerns the target recombinant HCV NS3 protease, genotype 1a (Hepatitis C virus genotype 1a, UniProt P27958). The series is described as follows: biochemical. The settings on record: genotype 1a NS3 protease; read-out: IC50 in a 1a enzyme assay.
In series [2] the target is recombinant HCV NS3 protease, genotype 1b (Hepatitis C virus genotype 1b, UniProt Q9WMX2). Put plainly: biochemical. The settings on record: genotype 1b NS3 protease; read-out: IC50 in a 1b enzyme assay.
Sequence of recombinant HCV NS3 protease, genotype 1b (Q9WMX2 1027-1657, other chains not shown): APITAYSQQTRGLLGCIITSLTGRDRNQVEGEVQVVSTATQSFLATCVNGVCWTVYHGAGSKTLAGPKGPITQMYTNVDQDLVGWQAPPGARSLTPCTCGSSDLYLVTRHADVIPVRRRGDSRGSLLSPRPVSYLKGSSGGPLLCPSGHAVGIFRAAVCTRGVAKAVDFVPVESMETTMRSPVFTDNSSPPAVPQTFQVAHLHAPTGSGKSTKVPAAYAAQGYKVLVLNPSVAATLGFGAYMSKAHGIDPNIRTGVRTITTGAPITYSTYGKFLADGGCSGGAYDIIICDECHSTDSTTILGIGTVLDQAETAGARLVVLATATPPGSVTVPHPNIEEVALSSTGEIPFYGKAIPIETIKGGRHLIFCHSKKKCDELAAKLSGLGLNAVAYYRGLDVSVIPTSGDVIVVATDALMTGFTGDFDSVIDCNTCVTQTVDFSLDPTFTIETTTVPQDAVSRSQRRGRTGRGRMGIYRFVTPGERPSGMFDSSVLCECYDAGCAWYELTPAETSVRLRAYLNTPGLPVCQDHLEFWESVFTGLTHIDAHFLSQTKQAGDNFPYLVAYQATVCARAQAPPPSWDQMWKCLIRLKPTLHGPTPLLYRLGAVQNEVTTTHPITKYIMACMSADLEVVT
Series [3] can be described thus: HLM stability. Format: in vitro ADME.
For series [4], the system named is HCV genotype 1a replicon (1a-H77). Put plainly: microbe, parasite or virus in culture. It counts as cell-based. The following applies: Hepatitis C virus, read-out: EC50 in a replicon cell line assay in a 1a-H77 background. A general note: Replicon systems follow genome replication, usually without infectious particles.
Series [5] deals with HCV genotype 1b replicon (1b-Con-1). Put plainly: microbe, parasite or virus in culture. The following applies: Hepatitis C virus, read-out: EC50 in a replicon cell line assay in a 1b-con1 background. It counts as cell-based.

Sequence of recombinant HCV NS3 protease, genotype 1a (P27958 1027-1657, other chains not shown): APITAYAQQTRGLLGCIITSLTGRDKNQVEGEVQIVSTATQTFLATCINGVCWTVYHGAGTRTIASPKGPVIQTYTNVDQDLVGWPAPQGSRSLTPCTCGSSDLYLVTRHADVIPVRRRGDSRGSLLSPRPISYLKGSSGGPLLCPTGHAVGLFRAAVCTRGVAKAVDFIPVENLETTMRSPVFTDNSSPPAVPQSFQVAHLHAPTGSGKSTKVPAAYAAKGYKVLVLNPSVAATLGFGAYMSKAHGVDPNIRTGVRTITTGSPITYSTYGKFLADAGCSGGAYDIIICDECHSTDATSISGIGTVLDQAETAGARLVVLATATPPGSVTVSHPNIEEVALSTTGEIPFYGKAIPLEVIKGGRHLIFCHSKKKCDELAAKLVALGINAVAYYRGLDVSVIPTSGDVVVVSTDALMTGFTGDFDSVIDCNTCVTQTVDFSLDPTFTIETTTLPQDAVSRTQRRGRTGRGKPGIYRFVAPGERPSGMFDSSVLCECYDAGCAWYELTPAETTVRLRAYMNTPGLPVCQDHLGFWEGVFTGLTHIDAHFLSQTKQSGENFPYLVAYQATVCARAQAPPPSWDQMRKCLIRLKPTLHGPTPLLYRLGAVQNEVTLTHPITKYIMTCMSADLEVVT

`CCc1nc2ccccc2nc1O[C@@H]1C[C@H]2C(=O)N[C@]3(C(=O)NS(=O)(=O)C4CC4)C[C@H]3CC(F)(F)CCCCC[C@H](NC(=O)c3ccon3)C(=O)N2C1` [Example 11, N-((2R,6S ,13aS,14aR,16aS)-14a-(cyclopropylsulfonylcarbamoyl)-2-(3-ethylquinoxalin-2-yloxy)-12,12-difluoro-5,16-dioxooctadecahydrocyclopropa[e]pyrrolo[1,2-a][1,4]diazacyclopentadecin-6-yl)isoxazole-3-carboxamide]: the IC50 in series [1] and in series [2] was 0.1 to 0.5 nM in each case. For the same compound, the HLM stability value in series [3] was less than 50 µL/min/mg. The EC50 in series [4] was greater than 5 nM; in series [5], 2 to 5 nM.

Consider `CCc1nc2ccccc2nc1O[C@@H]1C[C@H]2C(=O)N[C@]3(C(=O)NS(=O)(=O)C4CC4)C[C@H]3CC(F)(F)CCCCC[C@H](NC(=O)C(C)(C)C)C(=O)N2C1` [Example 12, (2R,6S,13aS,14aR,16a5)-N-(cyclopropylsulfonyl)-2-(3-ethylquinoxalin-2-yloxy)-12,12-difluoro-5,16-dioxo-6-pivalamidooctadecahydrocyclopropa[e]pyrrolo[1,2-a][1,4]diazacyclopentadecine-14a-carboxamide], for which the IC50 in series [1] and in series [2] was 0.5 to 1 nM in each case. Besides, in series [3], the HLM stability value was less than 50 µL/min/mg. For the same compound, the EC50 in series [4] and in series [5] was greater than 5 nM each time.

In the case of `Cc1cc(C(=O)N[C@H]2CCCCCC(F)(F)C[C@@H]3C[C@@]3(C(=O)NS(=O)(=O)C3CC3)NC(=O)[C@@H]3C[C@@H](Oc4nc5ccccc5nc4-c4nc5ccccc5s4)CN3C2=O)no1` [Example 14, N-((2R,6S,13aS,14aR,16aS)-2-(3-(benzo[d]thiazol-2-yl)quinoxalin-2-yloxy)-14a-(cyclopropylsulfonylcarbamoyl)-12,12-difluoro-5,16-dioxooctadecahydrocyclopropa[e]pyrrolo [1,2-a][1,4]diazacyclopentadecin-6-yl)-5-methylisoxazole-3-carboxamide], the concentration for half-maximal inhibition (IC50) in series [1] and in series [2] was 0.1 to 0.5 nM throughout. Also, the HLM stability value in series [3] is less than 50 µL/min/mg. Moreover, the figures for the 50% effective concentration (EC50) in series [4] and in series [5] were 2 to 5 nM and 1 to 2 nM, respectively.

With `CC(C)(C)OC(=O)N[C@H]1CCCCCC(F)(F)C[C@@H]2C[C@@]2(C(=O)NS(=O)(=O)C2CC2)NC(=O)[C@@H]2C[C@@H](Oc3nc4ccccc4c4ccccc34)CN2C1=O` [Example 19, tert-butyl (2R,6S,13aS,14aR,16aS)-14a-(cyclopropylsulfonylcarbamoyl)-12,12-difluoro-5,16-dioxo-2-(phenanthridin-6-yloxy)octadecahydrocyclopropa[e]pyrrolo[1,2-a][1,4]diazacyclopentadecin-6-ylcarbamate], the IC50 in series [1] and in series [2] was less than 0.1 nM each time. For the same compound, the HLM stability value in series [3] was greater than 100 µL/min/mg. Moreover, the EC50 in series [4] and in series [5] was less than 1 nM each time.
